# Molecular target: T1, MAN2B1 (Homo sapiens, UniProt O00754)
# T1 construct: expressed in transfected cells
# T1 sequence (O00754 50-1011): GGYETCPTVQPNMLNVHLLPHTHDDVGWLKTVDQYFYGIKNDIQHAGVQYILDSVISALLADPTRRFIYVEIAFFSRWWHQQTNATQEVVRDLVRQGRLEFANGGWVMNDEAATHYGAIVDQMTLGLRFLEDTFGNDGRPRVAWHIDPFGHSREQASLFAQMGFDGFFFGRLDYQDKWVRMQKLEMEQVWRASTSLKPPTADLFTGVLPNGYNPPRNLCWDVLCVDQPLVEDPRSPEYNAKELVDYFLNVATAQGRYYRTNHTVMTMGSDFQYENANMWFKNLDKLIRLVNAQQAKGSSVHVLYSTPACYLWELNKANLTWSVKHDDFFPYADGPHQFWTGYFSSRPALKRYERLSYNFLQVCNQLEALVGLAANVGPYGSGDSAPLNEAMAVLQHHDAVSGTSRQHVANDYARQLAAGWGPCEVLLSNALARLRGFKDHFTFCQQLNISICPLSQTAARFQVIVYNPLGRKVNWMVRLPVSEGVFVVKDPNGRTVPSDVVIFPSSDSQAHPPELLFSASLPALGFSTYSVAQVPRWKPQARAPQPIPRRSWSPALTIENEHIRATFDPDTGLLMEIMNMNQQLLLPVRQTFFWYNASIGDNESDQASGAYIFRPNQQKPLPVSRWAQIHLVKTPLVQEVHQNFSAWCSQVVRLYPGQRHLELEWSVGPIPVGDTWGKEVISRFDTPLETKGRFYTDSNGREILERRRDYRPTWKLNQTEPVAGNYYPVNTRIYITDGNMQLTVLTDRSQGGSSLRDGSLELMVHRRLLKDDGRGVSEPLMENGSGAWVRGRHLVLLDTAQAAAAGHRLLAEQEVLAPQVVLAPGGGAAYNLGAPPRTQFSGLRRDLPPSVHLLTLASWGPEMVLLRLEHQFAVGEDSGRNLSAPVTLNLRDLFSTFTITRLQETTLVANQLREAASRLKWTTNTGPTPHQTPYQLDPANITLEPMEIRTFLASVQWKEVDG
# Assay: 4-MU-α-man activity assay in overexpressed cell lysates
# Assay type: biochemical
# Description: Finally, selectivity versus a panel of related exo-mannosidases was investigated. We first tested inhibition against all five human GH38 retaining α-mannosidases in overexpressed cell lysates using 4-methylumbelliferyl-α-mannoside (4-MU-α-man): Golgi mannosidase II and IIx (MAN2A1 and MAN2A2), cytosolic MAN2C1 and lysosomal MAN2B1 and MAN2B2. This α-mannosidase family follows a different conformational itinerary than GH47: ^0S2 → B2,5 → ^1S5.[35] […] Of note, the presence of cobalt has been associated with conformational changes in the active site of some GH38 α-mannosidases, which might affect the binding interaction with inhibitors.[36] Nevertheless, additional research is required to explore which specific metal ion is present in the MAN2C1 active site in its in vivo state.
# Trans-Cyclosulfamidate Cyclitols Males et al.
# 2.3 GH38 α-mannosidases and GH2 β-mannosidase inhibition studies
# All chemicals were of analytical grade and purchased from Sigma-Aldrich unless stated otherwise.
# Optimal stability of cell homogenates and enzyme working stocks was ensured by preparation and temporary storage on ice. Cell homogenates were prepared and used on the same day. Protein concentrations were quantified using the Pierce BCA Protein Assay Kit (ThermoFisher). Protein samples were measured in clear flat-bottom polystyrene 96 well microplates (Greiner Bio-One) using a EMax Plus Microplate Reader (Molecular Devices). Activity measurements of human GH38 α-mannosidases and bacterial β-mannosidase BtMan2A were performed in black flat-bottom polystyrene 96 wells microplates (Greiner Bio-One) and total fluorescence was measured using a Perkin Elmer LS-55 fluorescence spectrometer at wavelengths λex = 366 and λem = 445 nm, with the signal optimized for medium gain readings. The fluorescence values of each enzyme sample were corrected for the background signal of a blank sample containing no enzyme. In the case of IC50 determinations, values were normalized against a control sample containing enzyme without added inhibitor. For a single experiment, three separate curves were fitted from a technical triplicate by setting the inhibitor concentration in µM against the normalized response using GraphPad Prism 8.4.2 software. The Prism functions ‘[inhibitor] versus normalized response’ and ‘[inhibitor] versus normalized response -- variable slope’ were compared for each curve using the Akaike’s Information Criterion method to select the preferred model. Reported IC50 values are mean ± standard deviation from a biological […]
# General cell culture protocol
# HEK293T cells were grown to confluency at 37 °C under a 5% CO2 atmosphere in Dulbecco’s Modified Eagle’s Medium (DMEM) with a high glucose concentration (Capricorn Scientific, DMEM-HPXA) that was supplemented with 10% fetal calf serum, 0.1% (w/v) penicillin/streptomycin and 1% (v/v) Glutamax. Cells were passaged twice a week to new round polystyrene (PS) tissue culture dishes (Sarstedt) by detachment off the former culture plates by careful pipetting. To prepare cell pellets for activity measurements, plates were grown to confluency and harvested in phosphate buffered saline (PBS). After centrifugation at 1500 rpm for 5 min, the remaining PBS was aspirated and the cells were resuspended in fresh PBS. The concentration of the resulting suspension was then counted using a TC20 automated cell counter (BioRad). Aliquots were centrifuged at 2000 rpm for 5 min and the resulting cell pellets were stored at -80 °C until further use.
# 4-MU activity assay protocol for human GH38 α-mannosidases
# HEK293T cells stably overexpressing human GH38 α-mannosidases MAN2A1, MAN2A2, MAN2B1, MAN2B2 and MAN2C1 were prepared as previously described[11] and were kindly donated by Dr. C. L.
# Kuo. Homogenates were prepared by sonicating cell pellets (Sonics VibraCell, 5x1 s with 30 s interval at 20% amplitude) in 150 mM McIlvain buffer of pH 5.5 (MAN2A1, MAN2A2), pH 4.5 (MAN2B1, MAN2B2) or pH 6.7 (MAN2C1) containing either 2 mM ZnCl2 (MAN2A1, MAN2A2, MAN2B1, MAN2B2) […]
compound,measurement,setting,value
"O=S1(=O)N[C@@H]2[C@@H](O)[C@@H](O)[C@H](O)[C@@H](CO)[C@H]2O1 [compound 6, 1,6-trans-manno-cyclosulfamidate]",activity when the buffer was enriched with CoCl2,CoCl2,no activity
same,IC50,Zn2+,> 1 mM

# Reference: publication PMC10685318, “Trans-cyclosulfamidate mannose-configured cyclitol allows isoform-dependent inhibition of GH47 α-D-mannosidases through a bump–hole strategy” (Chemical Science, 2023)
